# Measurements taken from paper PMC2642990, “The Glycogen-Binding Domain on the AMPK β Subunit Allows the Kinase to Act as a Glycogen Sensor” (Cell Metabolism, 2009).
# Target: T1, recombinant α1β1γ1 complex with β1 GBD mutations (W100G/W133A and others) (Rattus norvegicus, UniProt P80386, W100G/W133A)
# T1 construct: we made mutations in full-length β1 coexpressed with α1 and γ1 in CCL13 cells; made in house; host or cells: human CCL13 cells, co-transfected; isolated by anti-myc immunoprecipitation
# T1 sequence (P80386 2-270 W100G/W133A): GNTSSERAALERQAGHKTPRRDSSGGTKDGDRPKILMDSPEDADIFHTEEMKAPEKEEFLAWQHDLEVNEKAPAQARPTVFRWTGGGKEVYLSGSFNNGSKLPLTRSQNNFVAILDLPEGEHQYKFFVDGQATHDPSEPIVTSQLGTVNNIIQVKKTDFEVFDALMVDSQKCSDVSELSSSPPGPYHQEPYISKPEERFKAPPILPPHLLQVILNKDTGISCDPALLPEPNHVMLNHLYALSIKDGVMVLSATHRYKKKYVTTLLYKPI
# T1 sequence (P54645 whole entry partner): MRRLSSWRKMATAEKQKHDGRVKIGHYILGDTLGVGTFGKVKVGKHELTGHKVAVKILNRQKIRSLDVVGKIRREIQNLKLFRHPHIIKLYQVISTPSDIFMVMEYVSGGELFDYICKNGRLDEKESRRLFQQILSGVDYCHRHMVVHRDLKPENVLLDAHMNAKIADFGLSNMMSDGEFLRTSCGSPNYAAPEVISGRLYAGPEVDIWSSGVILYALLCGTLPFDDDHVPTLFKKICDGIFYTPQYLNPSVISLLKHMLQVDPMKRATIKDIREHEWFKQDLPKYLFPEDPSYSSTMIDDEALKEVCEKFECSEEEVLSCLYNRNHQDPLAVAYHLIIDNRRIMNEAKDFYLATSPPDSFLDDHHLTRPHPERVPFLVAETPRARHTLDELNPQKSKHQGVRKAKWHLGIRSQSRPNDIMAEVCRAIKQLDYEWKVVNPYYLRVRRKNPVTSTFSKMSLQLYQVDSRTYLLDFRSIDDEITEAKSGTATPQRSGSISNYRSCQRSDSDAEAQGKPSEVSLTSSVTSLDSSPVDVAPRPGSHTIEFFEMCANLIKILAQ
# T1 sequence (P80385 whole entry partner): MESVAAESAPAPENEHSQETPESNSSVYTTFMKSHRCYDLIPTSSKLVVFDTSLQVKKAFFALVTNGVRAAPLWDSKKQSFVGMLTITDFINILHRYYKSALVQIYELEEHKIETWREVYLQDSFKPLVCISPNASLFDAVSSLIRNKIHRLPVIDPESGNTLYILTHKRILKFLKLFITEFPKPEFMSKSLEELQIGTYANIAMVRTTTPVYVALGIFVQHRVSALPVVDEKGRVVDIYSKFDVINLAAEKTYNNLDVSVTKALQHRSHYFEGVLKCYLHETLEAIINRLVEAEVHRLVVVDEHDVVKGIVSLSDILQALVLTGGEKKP
# Assay: recombinant AMPK with GBD point mutations in β1, assayed in immunoprecipitates
# Assay type: biochemical
# Conditions: 20 mM; Figure 5D
# Excerpt: To test whether mutations that interfered with the binding of glycogen to the GBD also affected inhibition of AMPK by glycogen, we made mutations in full-length β1 coexpressed with α1 and γ1 in CCL13 cells, isolated the complex by immunoprecipitation via the myc tag on α1, and assayed the kinase activity in the presence and absence of glycogen. The activities were adjusted to correct for slight variation in recovery of the α1 subunit assessed by blotting (inset in Figure 3A). […] Because all of these assays were conducted in resuspended immunoprecipitates, the degree of inhibition of the wild-type was < 50%, as discussed in the previous section. […]
# Figure 3 Effect of β Subunit Mutations on Inhibition of Recombinant AMPK Complexes by Glycogen (A) Myc-α1, γ1, and β1 with the wild-type sequence or the indicated mutations were expressed in CCL13 cells, immunoprecipitated, and assayed ± bovine liver glycogen (200 mM glucose equivalents); results are mean ± SEM (n = 3). […] (C) Myc-α1, γ1, and β1 with the wild-type sequence or with W100G/W133A mutations were expressed in CCL13 cells, immunoprecipitated using anti-myc (left) or anti-FLAG (right) antibodies, and analyzed by western blotting using anti-myc antibodies (top panels) or a mixture of anti-β1 and -γ1 antibodies (bottom panels). […]
smiles,measurement,value
OC[C@H]1O[C@H](OC[C@H]2OC(O)[C@H](O)[C@@H](O)[C@@H]2O)[C@H](O)[C@@H](O)[C@@H]1O (stereo partly shown) [isomaltose],inhibition of W100G/W133A mutant,not
